# Literature values as cited in patent US20040071685A1, “Compositions and methods for increasing the bioavailability of plant polyphenols” (priority 2002, published 2004).
# Tests used:
# [1] = rats, 15 μM administered in the stomach in situ, after 30 minutes
# [2] = rats, oral, 700 μM/kg body weight
# [3] = adults
# [4] = tested on: alpha-glucosidase (invertase)
SMILES,amount remaining in the stomach [1] [µM],volume of distribution [3],other results
O=c1c(O)c(-c2ccc(O)c(O)c2)oc2cc(O)cc(O)c12 [quercetin],8.6,–,amount found in the bile samples [1]: 4.1 µM
O=C(O)/C=C/c1ccc(O)c(O)c1 [caffeic acid],–,–,maximum serum level of conjugates [2]: 0.64 µM; time of maximum serum levels [2]: 2 h
C[C@@H]1O[C@@H](OC[C@H]2O[C@@H](Oc3c(-c4ccc(O)c(O)c4)oc4cc(O)cc(O)c4c3=O)[C@H](O)[C@@H](O)[C@@H]2O)[C@H](O)[C@H](O)[C@H]1O [rutin],15,–,–
O=c1c(-c2ccc(O)cc2)coc2cc(O)cc(O)c12 [genistein],–,large,"type of inhibition [4]: reversible, slow-binding, non-competitive inhibitor"
O=c1c(O[C@@H]2O[C@H](CO)[C@@H](O)[C@H](O)[C@H]2O)c(-c2ccc(O)c(O)c2)oc2cc(O)cc(O)c12 [isoquercitrin],15,–,–
O=c1c(-c2ccc(O)cc2)coc2cc(O)ccc12 [daidzein],–,large,–
